Assay: xn = mol fraction of the nth substance listed
Conditions: 101.3 kPa

CC[n+]1ccn(C)c1.O=S(=O)([O-])C(F)(F)F + CCCCCO
speed of sound [m/s]
Conditions | 298.15 K | 308.15 K | 318.15 K | 328.15 K
x2 = 0 | 1435.8 | 1413.5 | – | 1369.8
x2 = 0.0507 | 1431.8 | 1409.5 | – | –
x2 = 0.108 | 1423.1 | 1400.8 | 1378.7 | 1357.1
x2 = 0.1716 | – | 1387.5 | 1365.4 | –
x2 = 0.2365 | 1395.2 | – | 1350.1 | 1328.1
x2 = 0.3297 | 1373.9 | 1350.8 | 1328 | 1305.7
x2 = 0.4357 | 1348.1 | – | 1301.1 | 1278.1
x2 = 0.5702 | 1317.4 | 1292.8 | 1268.5 | 1244.5
x2 = 0.5941 | 1312 | 1287.2 | 1262.7 | 1238.5
x2 = 0.7208 | 1287.9 | 1261.6 | – | –
x2 = 0.8085 | – | 1249.1 | 1221.4 | 1194
x2 = 0.8515 | 1273.4 | 1244.7 | 1216.1 | 1187.7
x2 = 0.8998 | 1271.4 | 1241.4 | 1211.5 | 1181.9
x2 = 0.9479 | 1271.7 | 1240.2 | – | 1177.7

CCCCCO + CC[n+]1ccn(C)c1.O=S(=O)([O-])C(F)(F)F
x1 = 1
Conditions | speed of sound [m/s]
298.15 K | 1274.9
308.15 K | 1241.4
328.15 K | 1175.3
